Test results as given in US11578073B2, “Xanthine analogs as potent anti-West Nile viral agents” (Southern Research Institute, priority 2019, dated 2023).

Experiments:
West Nile virus = experiment: anti-West Nile virus activity of xanthine analogs in HEK293 cells; type: cell-based; settings: HEK293, read-out: EC90 (effective concentration to inhibit 90% of virus)
[1] = cell viability assay (cytotoxicity) in HEK293 cells; type: cell-based; settings: human, read-out: CC50 (50% cytotoxicity concentration)

Compound	EC90 (West Nile virus) [µM]	CC50 [1] [µM]
Cn1c(=O)[nH]c(=O)c2c1nc(N1CCN(Cc3ccc(C(C)(C)O)cc3)CC1)n2Cc1ccccc1F [Compound 40, 7-(2-fluorobenzyl)-8-(4-(4-(2-hydroxypropan-2-yl)benzyl)piperazin-1-yl)-3-methyl-3,7-dihydro-1H-purine-2,6-dione]	> 10	> 40
Cc1ccc(C)c(CN2CCN(c3nc4c(c(=O)n(C)c(=O)n4C)n3Cc3ccccc3F)CC2)c1 [Compound 2, 8-(4-(2,5-dimethylbenzyl)piperazin-1-yl)-7-(2-fluorobenzyl)-1,3-dimethyl-3,7-dihydro-1H-purine-2,6-dione]	1.1	> 40
Cn1c(=O)[nH]c(=O)c2c1nc(N1CCC(Cc3cc(F)cc(F)c3)CC1)n2Cc1ccccc1F [Compound 61, 8-(4-(3,5-Difluorobenzyl)piperidin-1-yl)-7-(2-fluorobenzyl)-3-methyl-3,7-dihydro-1H-purine-2,6-dione]	> 10	
Cc1ccc(C)c(CN2CCN(c3nc4c([nH]3)c(=O)[nH]c(=O)n4C)CC2)c1 [Compound 7, 8-(4-(2,5-Dimethylbenzyl)piperazin-1-yl)-3-methyl-3,7-dihydro-1H-purine-2,6-dione]	> 10	
Cc1cc(C)cc(N2CCN(c3nc4c(c(=O)[nH]c(=O)n4C)n3Cc3ccccc3F)CC2)c1 [Compound 27, 8-(4-(3,5-Dimethylphenyl)piperazin-1-yl)-7-(2-fluorobenzyl)-3-methyl-3,7-dihydro-1H-purine-2,6-dione]	10	> 30
Cn1c(=O)[nH]c(=O)c2c1nc(N1CCN(Cc3ccc(C(C)(C)C)nc3)CC1)n2Cc1ccccc1F [Compound 38, 8-(4-((6-(tert-Butyl)pyridin-3-yl)methyl)piperazin-1-yl)-7-(2-fluorobenzyl)-3-methyl-3,7-dihydro-1H-purine-2,6-dione]	16	34.2
C=C(C)c1ccc(CN2CCN(c3nc4c(c(=O)[nH]c(=O)n4C)n3Cc3ccccc3F)CC2)cc1 [Compound 42, 7-(2-Fluorobenzyl)-3-methyl-8-(4-(4-(prop-1-en-2-yl)benzyl)piperazin-1-yl)-3,7-dihydro-1H-purine-2,6-dione]	2.1	22
Cn1c(=O)[nH]c(=O)c2c1nc(N1CCN(Cc3ccc(C(C)(C)C)cc3)CC1)n2Cc1ccncc1F [Compound 20, 8-(4-(4-(tert-Butyl)benzyl)piperazin-1-yl)-7-((3-fluoropyridin-4-yl)methyl)-3-methyl-3,7-dihydro-1H-purine-2,6-dione]	2.6	22.1
Cn1c(=O)n(CO)c(=O)c2c1nc(N1CCN(Cc3ccc(C(C)(C)C)cc3)CC1)n2Cc1ccccc1F [Compound 5, 8-(4-(4-(tert-butyl)benzyl)piperazin-1-yl)-7-(2-fluorobenzyl)-1-(hydroxymethyl)-3-methyl-3,7-dihydro-1H-purine-2,6-dione]	1.2	16.8
CC(C)(C)c1ccc(CN2CCN(c3nc4[nH]c(=O)[nH]c(=O)c4n3Cc3ccccc3F)CC2)cc1 [Compound 64, 8-(4-(4-(tert-butyl)benzyl)piperazin-1-yl)-7-(2-fluorobenzyl)-3,7-dihydro-1H-purine-2,6-dione]	9	10
Cn1c(=O)[nH]c(=O)c2c1nc(N1CCN(Cc3ccc(F)cc3)CC1)n2Cc1ccccc1F [Compound 35, 7-(2-Fluorobenzyl)-8-(4-(4-fluorobenzyl)piperazin-1-yl)-3-methyl-3,7-dihydro-1H-purine-2,6-dione]	10.5	> 30
Cn1c(=O)[nH]c(=O)c2c1nc(N1CCC(Cc3cccnc3)CC1)n2Cc1ccccc1F [Compound 62, 7-(2-Fluorobenzyl)-3-methyl-8-(4-(pyridin-3-ylmethyl)piperidin-1-yl)-3,7-dihydro-1H-purine-2,6-dione]	12.4	
Cn1c(=O)[nH]c(=O)c2c1nc(N1CCN(CC(=O)c3ccc(C(C)(C)C)cc3)CC1)n2Cc1ccccc1F [Compound 49, 8-(4-(2-(4-(tert-butyl)phenyl)-2-oxoethyl)piperazin-1-yl)-7-(2-fluorobenzyl)-3-methyl-3,7-dihydro-1H-purine-2,6-dione]	> 10	
Cn1c(=O)[nH]c(=O)c2c1nc(N1CCC(Cc3ccc(C#N)cc3)CC1)n2Cc1ccccc1F [Compound 59, 4-((1-(7-(2-Fluorobenzyl)-3-methyl-2,6-dioxo-2,3,6,7-tetrahydro-1H-purin-8-yl)piperidin-4-yl)methyl)benzonitrile]	> 10	
Cn1c(=O)[nH]c(=O)c2c1nc(N1CCNCC1)n2Cc1ccccc1F [Compound 21, 7-(2-Fluorobenzyl)-3-methyl-8-(piperazin-1-yl)-3,7-dihydro-1H-purine-2,6-dione]	> 10	
Cn1c(=O)[nH]c(=O)c2c1nc(N1CCN(c3ccc(C(C)(C)C)cc3)CC1)n2Cc1ccccc1F [Compound 29, 8-(4-(4-(tert-Butyl)phenyl)piperazin-1-yl)-7-(2-fluorobenzyl)-3-methyl-3,7-dihydro-1H-purine-2,6-dione]	> 10	
Cc1ccc(C)c(CCN2CCN(c3nc4c(c(=O)[nH]c(=O)n4C)n3Cc3ccccc3F)CC2)c1 [Compound 46, 8-(4-(2,5-Dimethylphenethyl)piperazin-1-yl)-7-(2-fluorobenzyl)-3-methyl-3,7-dihydro-1H-purine-2,6-dione]	10.2	

Compound	EC90 (West Nile virus) [µM]	CC50 [1] [µM]
Cn1c(=O)[nH]c(=O)c2c1nc(N1CCN(C(=O)c3ccc(C(C)(C)C)nc3)CC1)n2Cc1ccccc1F [Compound 45, 8-(4-(6-(tert-Butyl)nicotinoyl)piperazin-1-yl)-7-(2-fluorobenzyl)-3-methyl-3,7-dihydro-1H-purine-2,6-dione]	> 10	
Cc1ccc(C)c(CN2CCN(c3nc4c(c(=O)[nH]c(=O)n4C)n3Cc3cccnc3)CC2)c1 [Compound 10, 8-(4-(2,5-Dimethylbenzyl)piperazin-1-yl)-3-methyl-7-(pyridin-3-ylmethyl)-3,7-dihydro-1H-purine-2,6-dione]	> 10	
Cn1c(=O)[nH]c(=O)c2c1nc(N1CCC(C(F)(F)F)CC1)n2Cc1ccccc1F [Compound 55, 7-(2-Fluorobenzyl)-3-methyl-8-(4-(trifluoromethyl)piperidin-1-yl)-3,7-dihydro-1H-purine-2,6-dione]	> 10	
Cc1ccc(C)c(CNCCNc2nc3c(c(=O)[nH]c(=O)n3C)n2Cc2ccccc2F)c1 [Compound 63, 8-((2-((2,5-dimethylbenzyl)amino)ethyl)amino)-7-(2-fluorobenzyl)-3-methyl-3,7-dihydro-1H-purine-2,6-dione]	> 10	
Cn1c(=O)[nH]c(=O)c2c1nc(N1CCC(Cc3ccc(F)cc3)CC1)n2Cc1ccccc1F [Compound 60, 7-(2-Fluorobenzyl)-8-(4-(4-fluorobenzyl)piperidin-1-yl)-3-methyl-3,7-dihydro-1H-purine-2,6-dione]	> 10	
Cn1c(=O)[nH]c(=O)c2c1nc(N1CCC(F)(F)CC1)n2Cc1ccccc1F [Compound 53, 8-(4,4-Difluoropiperidin-1-yl)-7-(2-fluorobenzyl)-3-methyl-3,7-dihydro-1H-purine-2,6-dione]	> 10	
Cn1c(=O)[nH]c(=O)c2c1nc(N1CCN(CCc3ccc(C(C)(C)C)cc3)CC1)n2Cc1ccccc1F [Compound 47, 8-(4-(4-(tert-Butyl)phenethyl)piperazin-1-yl)-7-(2-fluorobenzyl)-3-methyl-3,7-dihydro-1H-purine-2,6-dione]	13.6	
Cn1c(=O)[nH]c(=O)c2c1nc(N1CCC(F)(F)C1)n2Cc1ccccc1F [Compound 51, 8-(3,3-Difluoropyrrolidin-1-yl)-7-(2-fluorobenzyl)-3-methyl-3,7-dihydro-1H-purine-2,6-dione]	> 10	
Cn1c(=O)[nH]c(=O)c2c1nc(N1CCN(C3CCC3)CC1)n2Cc1ccccc1F [Compound 25, 8-(4-Cyclobutylpiperazin-1-yl)-7-(2-fluorobenzyl)-3-methyl-3,7-dihydro-1H-purine-2,6-dione]	> 10	
Cn1c(=O)[nH]c(=O)c2c1nc(N1CCC(C(C)(C)C)CC1)n2Cc1ccccc1F [Compound 54, 8-(4-(tert-Butyl)piperidin-1-yl)-7-(2-fluorobenzyl)-3-methyl-3,7-dihydro-1H-purine-2,6-dione]	1.5	
Cn1c(=O)[nH]c(=O)c2c1nc(N1CCN(C3CC3)CC1)n2Cc1ccccc1F [Compound 23, 8-(4-Cyclopropylpiperazin-1-yl)-7-(2-fluorobenzyl)-3-methyl-3,7-dihydro-1H-purine-2,6-dione]	> 10	
Cn1c(=O)[nH]c(=O)c2c1nc(N1CCN(C(C)(C)C)CC1)n2Cc1ccccc1F [Compound 24, 8-(4-(tert-Butyl)piperazin-1-yl)-7-(2-fluorobenzyl)-3-methyl-3,7-dihydro-1H-purine-2,6-dione]	> 10	
Cc1ccc(C)c(CC(=O)N2CCN(c3nc4c(c(=O)[nH]c(=O)n4C)n3Cc3ccccc3F)CC2)c1 [Compound 48, 8-(4-(2-(2,5-Dimethylphenyl)acetyl)piperazin-1-yl)-7-(2-fluorobenzyl)-3-methyl-3,7-dihydro-1H-purine-2,6-dione]	> 10	
Cn1c(=O)[nH]c(=O)c2c1nc(N1CCN(c3ccccn3)CC1)n2Cc1ccccc1F [Compound 33, 7-(2-Fluorobenzyl)-3-methyl-8-(4-(pyridin-2-yl)piperazin-1-yl)-3,7-dihydro-1H-purine-2,6-dione]	> 10	
Cn1c(=O)[nH]c(=O)c2c1nc(N1CCN(c3ccc(Cl)cc3F)CC1)n2Cc1ccccc1F [Compound 31, 8-(4-(4-Chloro-2-fluorophenyl)piperazin-1-yl)-7-(2-fluorobenzyl)-3-methyl-3,7-dihydro-1H-purine-2,6-dione]	> 10	
Cn1c(=O)[nH]c(=O)c2c1nc(N1CCC(c3ccc(C#N)cc3)CC1)n2Cc1ccccc1F [Compound 58, 4-(1-(7-(2-Fluorobenzyl)-3-methyl-2,6-dioxo-2,3,6,7-tetrahydro-1H-purin-8-yl)piperidin-4-yl)benzonitrile]	> 10	
Cn1c(=O)[nH]c(=O)c2c1nc(N1CCN(c3ccc(C#N)cn3)CC1)n2Cc1ccccc1F [Compound 32, 6-(4-(7-(2-Fluorobenzyl)-3-methyl-2,6-dioxo-2,3,6,7-tetrahydro-1H-purin-8-yl)piperazin-1-yl)nicotinonitrile]	> 10	
